As usually defined, the EC50 is the concentration at which the effect is half-maximal. High values mean a need for much substance, low ones an effect from little substance.

The test system of the experiment is HBV. In words: HBV-DNA Antiviral Assay Using HepG2.117 Cells (intracellular HBV DNA by qPCR). In kind it is cell-based, hepatitis B virus (genotype D). Conditions: Hepatitis B virus, HepG2.117. The method in brief: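 Endpoint: qPCR copy number of intracellular HBV DNA after 3-day compound exposure, with inhibition set relative to the 2% DMSO control. The cells were doxycycline-free HepG2.117 carrying a Tet-off genotype D genome, dosed at nine 4-fold dilutions. A duplicate plate gave ATP-based viability (CC50).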
In general terms: Quantitative PCR measures a nucleic acid by following its amplification.
With `COc1cc(C#N)ccc1CNC(=O)c1c2n(c(=O)n1-c1ccc(OC(C)C)cc1)CCN(C(=O)c1ccc(Br)c(Cl)c1)C2` [Example 236, 7-(4-bromo-3-chloro-benzoyl)-N-[(4-cyano-2-methoxy-phenyl)methyl]-2-(4-isopropoxyphenyl)-3-oxo-6,8-dihydro-5H-imidazo[1,5-a]pyrazine-1-carboxamide], the EC50 lay in the range of 0.1 to 0.5 µM.
In turn, `O=C(NCc1ccccc1)c1c2n(c(=O)n1-c1ccc(N3CC(F)(F)C3)cc1)CCN(C(=O)c1ccc(Br)c(Cl)c1)C2` [Example 391, N-benzyl-7-(4-bromo-3-chloro-benzoyl)-2-[4-(3,3-difluoroazetidin-1-yl)phenyl]-3-oxo-6,8-dihydro-5H-imidazo[1,5-a]pyrazine-1-carboxamide] showed an EC50 of 0.1 to 0.5 µM.
Next, `O=C(NCc1ccc(OC(F)F)cc1F)c1c2n(c(=O)n1-c1ccc(OC3CC3)cc1)CCN(C(=O)c1ccc(Br)c(Cl)c1)C2` [Example 297, 7-(4-bromo-3-chloro-benzoyl)-2-[4-(cyclopropoxy)phenyl]-N-[[4-(difluoromethoxy)-2-fluoro-phenyl]methyl]-3-oxo-6,8-dihydro-5H-imidazo[1,5-a]pyrazine-1-carboxamide]: 0.1 to 0.5 µM; `CC(C)CN1CCCn2c(c3n(c2=O)CCN(C(=O)c2ccc(Br)c(Cl)c2)C3)C1=O` [Example 134, 4-(4-bromo-3-chloro-benzoyl)-13-isobutyl-4,7,9,13-tetrazatricyclo[7.5.0.0^2,7]tetradec-1-ene-8.14-dione]: greater than 5 µM; `C[C@@H](NC(=O)c1c2n(c(=O)n1C1CC1)CCN(C(=O)c1ccc(Br)c(Cl)c1)C2)c1ccccc1` (stereo in doubt) [Example 189, 7-(4-bromo-3-chloro-benzoyl)-2-cyclopropyl-3-oxo-N-[rac-(1R)-1-phenylethyl]-6,8-dihydro-5H-imidazo[1,5-a]pyrazine-1-carboxamide]: 0.5 to 5 µM.
Next, `Cc1ccn(-c2ccc(-n3c(C(=O)NCc4ccccc4)c4n(c3=O)CCN(C(=O)c3ccc(Br)c(Cl)c3)C4)cc2)n1` [Example 455, N-benzyl-7-(4-bromo-3-chloro-benzoyl)-2-[4-(3-methylpyrazol-1-yl)phenyl]-3-oxo-6,8-dihydro-5H-imidazo[1,5-a]pyrazine-1-carboxamide]: 0.1 to 0.5 µM; `N#CCOc1ccc(-n2c(C(=O)NCc3ccccc3)c3n(c2=O)CCN(C(=O)c2ccc(Br)c(Cl)c2)C3)cc1` [Example 265, N-benzyl-7-(4-bromo-3-chloro-benozyl)-2-[4-(cyanomethoxy)phenyl]-3-oxo-6,8-dihydro-5H-imidazo[1,5-a]pyrazine-1-carboxamide]: 0.5 to 5 µM; `O=C(NCc1ccccc1-c1cnccn1)c1c2n(c(=O)n1-c1ccc(OC3CC3)cc1)CCN(C(=O)c1ccc(Br)c(Cl)c1)C2` [Example 401, 7-(4-bromo-3-chloro-benzoyl)-2-[4-(cyclopropoxy)phenyl]-3-oxo-N-[(2-pyrazin-2-ylphenyl)methyl]-6,8-dihydro-5H-imidazo[1,5-a]pyrazine-1-carboxamide]: less than 0.1 µM.
Under `Cc1ccnn1-c1ccc(-n2c(C(=O)NCc3ccccc3)c3n(c2=O)CCN(C(=O)c2ccc(Br)c(Cl)c2)C3)cc1` [Example 456, N-benzyl-7-(4-bromo-3-chloro-benzoyl)-2-[4-(5-methylpyrazol-1-yl)phenyl]-3-oxo-6,8-dihydro-5H-imidazo[1,5-a]pyrazine-1-carboxamide] stands 0.5 to 5 µM.
For `C[C@@H]1Cn2c(c(C(=O)NCc3ccccc3-n3cccn3)n(-c3ccc(OC4CC4)cc3)c2=O)CN1C(=O)c1ccc(Br)c(Cl)c1` (stereo in doubt) [Example 439, rac-(6R)-7-(4-bromo-3-chloro-benzoyl)-2-[4-(cyclopropoxy)phenyl]-6-methyl-3-oxo-N-[(2-pyrazol-1-ylphenyl)methyl]-6,8-dihydro-5H-imidazo[1,5-a]pyrazine-1-carboxamide], the EC50 fell in the range of 0.1 to 0.5 µM.
With `COc1ccc(-n2c(C(=O)NCc3ccc(CC(=O)O)cc3)c3n(c2=O)CCN(C(=O)c2ccc(Br)c(Cl)c2)C3)cc1` [Example 215, 2-[4-[[[7-(4-bromo-3-chloro-benzoyl)-2-(4-methoxyphenyl)-3-oxo-6,8-dihydro-5H-imidazo[1,5-a]pyrazine-1-carbonyl]amino]methyl]phenyl]acetic acid], the EC50 is greater than 5 µM.
`C[C@@H](NC(=O)c1c2n(c(=O)n1-c1ccc(OCC(F)(F)F)cc1)CCN(C(=O)c1ccc(Br)c(Cl)c1)C2)c1ccc(OC(F)F)cc1F` (stereo in doubt) [Example 317, 7-(4-bromo-3-chloro-benzoyl)-3-oxo-N-[rac-(1R)-1-[4-(difluoromethoxy)-2-fluoro-phenyl]ethyl]-2-[4-(2,2,2-trifluoroethoxy)phenyl]-6,8-dihydro-5H-imidazo[1,5-a]pyrazine-1-carboxamide] yielded an EC50 of 0.5 to 5 µM.
Turning to `COc1ccc([C@@H](C)NC(=O)c2c3n(c(=O)n2-c2ccc(OC4CC4)cc2)C[C@H](C)N(C(=O)c2ccc(Br)c(Cl)c2)C3)cc1` (racemic) [Example 450, (6SR)-7-(4-bromo-3-chloro-benzoyl)-2-[4-(cyclopropoxy)phenyl]-N-[(1R)-1-(4-methoxyphenyl)ethyl]-6-methyl-3-oxo-6,8-dihydro-5H-imidazo[1,5-a]pyrazine-1-carobxamide], the EC50 was less than 0.1 µM.
Take `NC(=O)COc1ccc(-n2c(C(=O)NCc3ccccc3)c3n(c2=O)CCN(C(=O)c2ccc(Br)c(Cl)c2)C3)cc1` [Example 285, 2-[4-(2-amino-2-oxo-ethoxy)phenyl]-N-benzyl-7-(4-bromo-3-chloro-benzoyl)-3-oxo-6,8-dihydro-5H-imidazo[1,5-a]pyrazine-1-carboxamide]: the EC50 was 0.5 to 5 µM.
`Cc1cc(-n2c(C(=O)NCc3ccccc3)c3n(c2=O)CCN(C(=O)c2ccc(Br)c(Cl)c2)C3)ccc1C#N` [Example 257, N-benzyl-7-(4-bromo-3-chloro-benzoyl)-2-(4-cyano-3-methyl-phenyl)-3-oxo-6,8-dihydro-5H-imidazo[1,5-a]pyrazine-1-carboxamide] came in with an EC50 of 0.5 to 5 µM.
Regarding `C[C@@H](NC(=O)c1c2n(c(=O)n1-c1ccc(OC3COC3)cc1)CCN(C(=O)c1ccc(Br)c(Cl)c1)C2)c1ccccc1` (stereo in doubt) [Example 170, 7-(4-bromo-3-chloro-benzoyl)-2-[4-(oxetan-3-yloxy)phenyl]-3-oxo-N-[rac-(1R)-1-phenylethyl]-6,8-dihydro-5H-imidazo[1,5-a]pyrazine-1-carboxamide], the EC50 lay within 0.1 to 0.5 µM.
Compound `O=C(NCc1ccccc1)c1c2n(c(=O)n1-c1ccc3sccc3c1)CCN(C(=O)c1ccc(Br)c(Cl)c1)C2` [Example 248] came in with an EC50 of 0.1 to 0.5 µM.
The compound `C[C@@H](NC(=O)c1c2n(c(=O)n1-c1ccc(OCC(F)(F)F)cc1)CCN(C(=O)c1ccc(Br)c(Cl)c1)C2)c1ccc(OCC#N)cc1F` (stereo in doubt) [Example 344, 7-(4-bromo-3-chloro-benzoyl)-3-oxo-N-[rac-(1R)-1-[4-(cyanomethoxy)-2-fluoro-phenyl]ethyl]-2-[4-(2,2,2-trifluoroethoxy)phenyl]-6,8-dihydro-5H-imidazo[1,5-a]pyrazine-1-carboxamide] showed an EC50 of 0.5 to 5 µM.
Next, `C[C@@H](Oc1ccc(CNC(=O)c2c3n(c(=O)n2-c2ccc(OCC(F)(F)F)cc2)CCN(C(=O)c2ccc(Br)c(Cl)c2)C3)c(F)c1)C(N)=O` (stereo in doubt) [Example 354, 7-(4-bromo-3-chloro-benozyl)-N-[[2-fluoro-4-[rac-(1R)-2-amino-1-methyl-2-oxo-ethoxy]phenyl]methyl]-3-oxo-2-[4-(2,2,2-trifluoroethoxy)phenyl]-6,8-dihydro-5H-imidazo[1,5-a]pyrazine-1-carboxamide]: 0.5 to 5 µM; `COc1ccc(-n2c(C(=O)NCc3ccc(OC)cc3OC)c3n(c2=O)CCN(C(=O)c2ccc(Br)c(Cl)c2)C3)cc1` [Example 143, 7-(4-bromo-3-chloro-benzoyl)-N-[(2,4-dimethoxyphenyl)methyl]-2-(4-methoxyphenyl)-3-oxo-6,8-dihydro-5H-imidazo[1,5-a]pyrazine-1-carboxamide]: less than 0.1 µM.
The compound `O=C(NCc1ccccc1-c1ncco1)c1c2n(c(=O)n1-c1ccc(OCC(F)(F)F)cc1)CCN(C(=O)c1ccc(Br)c(Cl)c1)C2` [Example 375, 7-(4-bromo-3-chloro-benzoyl)-N-[(2-oxazol-2-ylphenyl)methyl]-3-oxo-2-[4-(2,2,2-trifluoroethoxy)phenyl]-6,8-dihydro-5H-imidazo[1,5-a]pyrazine-1-carboxamide] yielded an EC50 of 0.1 to 0.5 µM.
Take `O=C(c1ccc(Br)c(Cl)c1)N1CCn2c(c3n(c2=O)C[C@@H](F)CN(Cc2ccccc2)C3=O)C1` (stereo in doubt) [Example 201, rac-(11S)-13-benzyl-4-(4-bromo-3-chloro-benzoyl)-11-fluoro-4,7,9,13-tetrazatricyclo[7.5.0.0^2,7]tetradec-1-ene-8,14-dione]: the EC50 was in the range of 0.1 to 0.5 µM.
`COCC1(N(C)C(=O)c2c3n(c(=O)n2-c2ccc(OC)cc2)CCN(C(=O)c2ccc(Cl)c(Cl)c2)C3)CC1` [Example 111, 7-(3,4-dichlorobenzoyl)-N-[1-(methoxymethyl)cyclopropyl]-2-(4-methoxyphenyl)-N-methyl-3-oxo-6,8-dihydro-5H-imidazo[1,5-a]pyrazine-1-carboxamide]: the EC50 is greater than 5 µM.
Take `CC(C)Oc1ccc(-n2c(C(=O)NCc3ccc(=O)n(C)c3)c3n(c2=O)CCN(C(=O)c2ccc(Br)c(Cl)c2)C3)cc1` [Example 232, 7-(4-bromo-3-chloro-benzoyl)-2-(4-isopropoxyphenyl)-N-[(1-methyl-6-oxo-3-pyridyl)methyl]-3-oxo-6,8-dihydro-5H-imidazo[1,5-a]pyrazine-1-carboxamide]: the EC50 was greater than 5 µM.
`O=C(NCc1ccccc1)c1c2n(c(=O)n1-c1ccc(OC(F)(F)F)cc1)CCN(C(=O)c1ccc(Cl)c(Cl)c1)C2` [Example 131, N-benzyl-7-(3,4-dichlorobenzoyl)-3-oxo-2-[4-(trifluoromethoxy)phenyl]-6,8-dihydro-5H-imidazo[1,5-a]pyrazine-1-carboxamide] yielded an EC50 greater than 5 µM.

Source of the values: US11591341B2 (ALIGOS THERAPEUTICS, INC., priority 2019, dated 2023).
